pKi: −log10 of the molar value. Read-outs that look alike come from different tables or passages of the source.
What was measured:
[1] = molecular target: ENPP-1 ECD (Homo sapiens (Human), UniProt P22413); test: Assay 2: inhibition of ENPP1 hydrolysis of 2′,3′-cGAMP (AMP-Glo, […] enzyme); settings: for pKi: ENPP1 hydrolysis of 2′,3′-cGAMP, AMP-Glo, […] ENPP-1, 24 μM cGAMP; for Ki: inhibition of ENPP1 hydrolysis of 2′,3′-cGAMP, no unit in Table 18 (Table 17 legend for this assay uses nM)
Description: Assay 2: Compared to the conditions in Assay 1, this assay has a larger dynamic range and ensures the system is under steady-state conditions by reducing the enzyme concentration in the assay.
Test compounds were plated in a 3× dilution scheme in a 384 well plate. […] AMP Detection solution (10 μL) was added to each well, the plate centrifuged and incubated for 60 min.

[2] = molecular target: ENPP1 on MDA-MB-231 cells (Homo sapiens (Human), UniProt P22413); test: Assay 3: inhibition of ENPP1 hydrolysis of AMP p-nitrophenyl ester on MDA-MB-231 cells
[3] = read-out: Assay 3 (KI, app), apparent KI from IC50 via Cheng/Prusoff, pNP-AMP […], MDA-MB-231 cells, pH 7.4, 37° C., 3 h, unit inferred

ENPP1 on MDA-MB-231 cells, sequence (P22413 whole entry): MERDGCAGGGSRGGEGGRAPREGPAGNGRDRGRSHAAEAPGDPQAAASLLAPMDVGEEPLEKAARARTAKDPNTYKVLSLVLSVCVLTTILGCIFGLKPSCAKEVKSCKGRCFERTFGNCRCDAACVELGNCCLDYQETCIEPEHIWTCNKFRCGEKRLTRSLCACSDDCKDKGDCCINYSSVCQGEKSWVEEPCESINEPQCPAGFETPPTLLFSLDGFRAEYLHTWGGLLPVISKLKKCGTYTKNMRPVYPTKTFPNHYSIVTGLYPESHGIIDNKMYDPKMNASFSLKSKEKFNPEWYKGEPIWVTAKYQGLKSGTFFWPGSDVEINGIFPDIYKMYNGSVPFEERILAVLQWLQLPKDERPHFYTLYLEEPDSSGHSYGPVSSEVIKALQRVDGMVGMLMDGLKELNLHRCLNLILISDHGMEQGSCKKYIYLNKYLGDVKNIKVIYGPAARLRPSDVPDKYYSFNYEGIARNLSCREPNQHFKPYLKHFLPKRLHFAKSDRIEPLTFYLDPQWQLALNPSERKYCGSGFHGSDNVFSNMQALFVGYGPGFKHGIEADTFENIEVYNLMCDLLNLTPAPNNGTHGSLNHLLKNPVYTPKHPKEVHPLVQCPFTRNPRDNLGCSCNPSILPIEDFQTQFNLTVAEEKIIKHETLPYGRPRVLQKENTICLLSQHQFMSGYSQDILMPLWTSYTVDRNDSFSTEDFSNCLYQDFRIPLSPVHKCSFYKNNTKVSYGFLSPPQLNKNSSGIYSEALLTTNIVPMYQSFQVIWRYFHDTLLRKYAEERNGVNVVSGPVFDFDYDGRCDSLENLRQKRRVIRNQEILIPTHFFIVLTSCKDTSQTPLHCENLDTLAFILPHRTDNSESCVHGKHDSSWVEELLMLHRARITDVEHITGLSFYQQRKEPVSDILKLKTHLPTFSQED
ENPP-1 ECD, sequence (P22413 98-925): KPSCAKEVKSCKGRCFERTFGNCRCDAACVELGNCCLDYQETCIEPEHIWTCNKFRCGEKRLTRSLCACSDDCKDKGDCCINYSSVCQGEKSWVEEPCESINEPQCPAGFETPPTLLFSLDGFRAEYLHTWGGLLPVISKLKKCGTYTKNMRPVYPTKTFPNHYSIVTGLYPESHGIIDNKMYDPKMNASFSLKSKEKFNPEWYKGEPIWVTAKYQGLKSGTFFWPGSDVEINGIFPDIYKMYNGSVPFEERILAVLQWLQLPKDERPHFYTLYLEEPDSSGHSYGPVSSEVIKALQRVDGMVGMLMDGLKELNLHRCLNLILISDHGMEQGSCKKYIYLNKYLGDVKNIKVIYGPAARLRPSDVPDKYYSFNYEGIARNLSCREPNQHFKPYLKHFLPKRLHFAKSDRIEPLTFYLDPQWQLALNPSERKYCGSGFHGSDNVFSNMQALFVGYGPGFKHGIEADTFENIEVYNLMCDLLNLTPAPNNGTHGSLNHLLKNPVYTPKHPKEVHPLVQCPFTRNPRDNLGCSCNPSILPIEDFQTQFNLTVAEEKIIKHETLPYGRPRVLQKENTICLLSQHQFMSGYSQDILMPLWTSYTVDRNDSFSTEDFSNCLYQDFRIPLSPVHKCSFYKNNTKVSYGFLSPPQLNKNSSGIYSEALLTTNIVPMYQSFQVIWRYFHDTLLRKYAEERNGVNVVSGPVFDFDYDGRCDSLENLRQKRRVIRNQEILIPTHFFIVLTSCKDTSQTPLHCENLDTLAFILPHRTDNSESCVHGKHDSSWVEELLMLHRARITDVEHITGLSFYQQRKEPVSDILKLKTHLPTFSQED

Compound: COc1ccc2c(Oc3ccc(S(C)(=N)=O)cc3)cc(C)nc2c1 (stereo not shown) [Compound 124, imino({4-[(7-methoxy-2-methylquinolin-4-yl)oxy]phenyl})methyl-λ^6-sulfanone]
- pKi ([1]; Assay 2 (KI)): > 8.52
- Ki ([1]; Assay 2 (KI)): 0.73 nM
- pKi [2]: 7.52

Compound: COc1ccc2c(Oc3ccc(S(=N)(=O)CC(C)(C)O)cc3)ccnc2c1 (stereo not shown) [Compound 132, (2-hydroxy-2-methylpropyl)(imino){4-[(7-methoxyquinolin-4-yl)oxy]phenyl}-λ^6-sulfanone]
- pKi ([1]; Assay 2 (KI)): > 8.52
- Ki ([1]; Assay 2 (KI)): 1.1 nM
- pKi [2]: 7.35

Compound: COc1cc2nccc(N3CCC(CC[S@@](C)(=N)=O)CC3)c2cc1Cl [Compound 141a]
- pKi ([1]; read-out: Assay 2 (KI)): > 8.52
- Ki ([1]; read-out: Assay 2 (KI)): 0.26 nM
- pKi [2, 3]: 7.55

Compound: COc1ccc2c(N3CCC(CCS(C)(=N)=O)CC3)c(C#N)cnc2c1 (stereo not shown) [Compound 143, 4-(4-{2-[imino(methyl)oxo-λ6-sulfanyl]ethyl}piperidin-1-yl)-7-methoxyquinoline-3-carbonitrile]
- pKi ([1]; Assay 2 (KI)): > 8.52
- Ki ([1]; Assay 2 (KI)): 1 nM
- pKi [2]: 6.74

Compound: COc1cc2ncc(C#N)c(N3CCC(CCS(C)(=N)=O)CC3)c2cc1OC (stereo not shown) [Compound 144, 4-(4-{2-[imino(methyl)oxo-λ6-sulfanyl]ethyl}piperidin-1-yl)-6,7-dimethoxyquinoline-3-carbonitrile]
- pKi ([1]; Assay 2 (KI)): > 8.52
- Ki ([1]; Assay 2 (KI)): 0.28 nM
- pKi [2]: 7.72

Compound: COc1cccc2c(N3CCC(CS(C)(=N)=O)CC3)ncnc12 (stereo not shown) [Compound 146, imino({[1-(8-methoxyquinazolin-4-yl)piperidin-4-yl]methyl})methyl-λ^6-sulfanone]
- pKi ([1]; Assay 2 (KI)): > 8.52
- Ki ([1]; Assay 2 (KI)): 0.36 nM
- pKi [2]: 7.82

Compound: COc1cccc2c(N3CCC(C[S@@](C)(=N)=O)CC3)ncnc12 [Compound 146a]
- Ki ([1]; read-out: Assay 2 (KI)): 0.12 nM
- pKi [2, 3]: 8.35

Compound: COc1cc2nccc(N3CCC4(CC3)CCN(S(C)(=N)=O)C4)c2cc1Cl (stereo not shown) [Compound 156, [8-(6-chloro-7-methoxyquinolin-4-yl)-2,8-diazaspiro[4.5]decan-2-yl](imino)methyl-λ^6-sulfanone]
- pKi ([1]; Assay 2 (KI)): > 8.52
- Ki ([1]; Assay 2 (KI)): 0.03 nM
- pKi [2]: 8.39

Compound: COc1cc2nccc(N3CCC4(CC3)CCN([S@@](C)(=N)=O)C4)c2cc1Cl [Compound 156a]
- pKi ([1]; read-out: Assay 2 (KI)): > 8.52
- Ki ([1]; read-out: Assay 2 (KI)): 0.016 nM
- pKi [2, 3]: 8.77

Compound: CCS(=N)(=O)N1CCC2(CCN(c3ncnc4cc(OC)c(OC)cc34)CC2)C1 (stereo not shown) [Compound 159, [8-(6,7-dimethoxyquinazolin-4-yl)-2,8-diazaspiro[4.5]decan-2-yl](ethyl)imino-λ^6-sulfanone]
- pKi ([1]; Assay 2 (KI)): > 8.52
- Ki ([1]; Assay 2 (KI)): 0.025 nM
- pKi [2]: 8.44

Compound: COc1cc2ncnc(N3CCC4(CC3)CCN(S(=N)(=O)C3CC3)C4)c2cc1OC (stereo not shown) [Compound 160, {cyclopropyl[8-(6,7-dimethoxyquinazolin-4-yl)-2,8-diazaspiro[4.5]decan-2-yl]imino-λ^6-sulfanyl}one]
- pKi ([1]; Assay 2 (KI)): > 8.52
- Ki ([1]; Assay 2 (KI)): 0.021 nM
- pKi [2]: 9.35

Compound: COc1cc2ncnc(N3CCC4(CC3)CCN([S@](=N)(=O)C3CC3)C4)c2cc1OC [Compound 160a]
- Ki ([1]; read-out: Assay 2 (KI)): 0.007 nM
- pKi [2, 3]: 9.66

Compound: COc1cc2nccc(-c3ccc4c(c3)CN([S@@](C)(=N)=O)CC4)c2cc1OC [Compound 161a]
- pKi ([1]; read-out: Assay 2 (KI)): > 8.52
- Ki ([1]; read-out: Assay 2 (KI)): 0.015 nM
- pKi [2, 3]: 8.28

Compound: COc1ccc2c(Oc3ccc(S(=N)(=O)C4CN(C(C)=O)C4)cc3)ccnc2c1 (stereo not shown) [Compound 166, 1-[3-({4-[(7-methoxyquinolin-4-yl)oxy]phenyl}imino-λ^6-sulfanyl)azetidin-1-yl]ethan-1-one]
- Ki ([1]; Assay 2 (KI)): 3.1 nM
- pKi [2]: 6.64

Compound: COc1ccc2c(Oc3ccc(S(C)(=N)=O)cc3)c(C)cnc2c1 (stereo not shown) [Compound 168, imino({4-[(7-methoxy-3-methylquinolin-4-yl)oxy]phenyl})methyl-λ^6-sulfanone]
- Ki ([1]; Assay 2 (KI)): 0.84 nM
- pKi [2]: 7.40

Compound: COc1cc2nccc(OCc3cccc(S(C)(=N)=O)c3)c2cc1F (stereo not shown) [Compound 169, (3-{[(6-fluoro-7-methoxyquinolin-4-yl)oxy]methyl}phenyl)(imino)methyl-λ^6-sulfanone]
- Ki ([1]; Assay 2 (KI)): 0.051 nM
- pKi [2]: 8.82

Compound: COc1cc2nccc(OCc3cccc([S@@](C)(=N)=O)c3)c2cc1F [Compound 169a]
- Ki ([1]; read-out: Assay 2 (KI)): 15 nM
- pKi [2, 3]: < 6.72

Compound: COc1cc2nccc(OCc3cccc([S@](C)(=N)=O)c3)c2cc1F [Compound 169b]
- Ki ([1]; read-out: Assay 2 (KI)): 0.018 nM
- pKi [2, 3]: 8.82

Compound: COc1ccc2c(OCc3cc(S(C)(=N)=O)co3)ccnc2c1 (stereo not shown) [Compound 170, imino(5-{[(7-methoxyquinolin-4-yl)oxy]methyl}furan-3-yl)methyl-λ^6-sulfanone]
- Ki ([1]; Assay 2 (KI)): 0.7 nM
- pKi [2]: 7.60

Compound: COc1cc2ncnc(OCc3cccc(S(C)(=N)=O)c3)c2cc1OC (stereo not shown) [Compound 173, (3-{[(6,7-dimethoxyquinazolin-4-yl)oxy]methyl}phenyl)(imino)methyl-λ^6-sulfanone]
- Ki ([1]; Assay 2 (KI)): 0.17 nM
- pKi [2]: 8.04

Compound: COc1ccc2c(OCc3cccc(S(C)(=N)=O)c3)ncnc2c1 (stereo not shown) [Compound 174, imino(3-{[(7-methoxyquinazolin-4-yl)oxy]methyl}phenyl)methyl-λ^6-sulfanone]
- Ki ([1]; read-out: Assay 2 (KI)): 5.2 nM
- pKi [2, 3]: 6.62

Compound: COc1cc2nccc(OCc3cccc(S(C)(=N)=O)c3)c2cc1OC (stereo not shown) [Compound 175, (3-{[(6,7-dimethoxyquinolin-4-yl)oxy]methyl}phenyl)(imino)methyl-λ^6-sulfanone]
- Ki ([1]; Assay 2 (KI)): 0.037 nM
- pKi [2]: 8.46

Compound: COc1cc2nccc(OCc3cccc([S@](C)(=N)=O)c3)c2cc1OC [Compound 175a]
- Ki ([1]; read-out: Assay 2 (KI)): 0.011 nM
- pKi [2, 3]: 9.28

Compound: COc1cc2nccc(OCc3cccc(S(C)(=N)=O)c3)c2cc1Cl (stereo not shown) [Compound 176, (3-{[(6-chloro-7-methoxyquinolin-4-yl)oxy]methyl}phenyl)(imino)methyl-λ^6-sulfanone]
- Ki ([1]; Assay 2 (KI)): 0.094 nM
- pKi [2]: 8.14

Compound: COc1ccc2c(OCc3cc(F)cc(S(C)(=N)=O)c3)ccnc2c1 (stereo not shown) [Compound 177, (3-fluoro-5-{[(7-methoxyquinolin-4-yl)oxy]methyl}phenyl)(imino)methyl-λ^6-sulfanone]
- Ki ([1]; Assay 2 (KI)): 0.03 nM
- pKi [2]: 8.82

Compound: COc1ccc2c(OCc3cc(F)cc([S@](C)(=N)=O)c3)ccnc2c1 [Compound 177b]
- Ki ([1]; read-out: Assay 2 (KI)): 0.0085 nM
- pKi [2, 3]: 9.32

Compound: COc1cccc2c(N3CCC(CS(C)(=N)=O)CC3)c(C#N)cnc12 (stereo not shown) [Compound 179, 4-(4-{[imino(methyl)oxo-λ^6-sulfanyl]methyl}piperidin-1-yl)-8-methoxyquinoline-3-carbonitrile]
- Ki ([1]; Assay 2 (KI)): 0.048 nM
- pKi [2]: 8.48

Compound: COc1cccc2c(N3CCC(C[S@](C)(=N)=O)CC3)c(C#N)cnc12 [Compound 179b]
- Ki ([1]; read-out: Assay 2 (KI)): 0.014 nM
- pKi [2, 3]: 9.20

Compound: COc1cc2ncnc(N3CCC4(CCC(S(C)(=N)=O)C4)CC3)c2cc1OC (stereo not shown) [Compound 181, [8-(6,7-dimethoxyquinazolin-4-yl)-8-azaspiro[4.5]decan-2-yl](imino)methyl-λ^6-sulfanone]
- Ki ([1]; Assay 2 (KI)): 0.16 nM
- pKi [2]: 7.55

Compound: COc1cc2nccc(N3CC4(CC(CS(C)(=N)=O)C4)C3)c2cc1F (stereo not shown) [Compound 184, {[2-(6-fluoro-7-methoxyquinolin-4-yl)-2-azaspiro[3.3]heptan-6-yl]methyl}(imino)methyl-λ^6-sulfanone]
- Ki ([1]; Assay 2 (KI)): 0.13 nM
- pKi [2]: 8.26

Compound: COc1cc2nccc(N3CC4(CC(C[S@@](C)(=N)=O)C4)C3)c2cc1F [Compound 184a]
- Ki ([1]; read-out: Assay 2 (KI)): 0.1 nM
- pKi [2, 3]: 8.77

Compound: COc1cc2nccc(N3CC4(CC(C[S@](C)(=N)=O)C4)C3)c2cc1F [Compound 184b]
- Ki ([1]; read-out: Assay 2 (KI)): 2.5 nM
- pKi [2, 3]: 7.24

Compound: COc1cccc2c(N3CCC(O)(CS(C)(=N)=O)CC3)ncnc12 (stereo not shown) [Compound 185, {[4-hydroxy-1-(8-methoxyquinazolin-4-yl)piperidin-4-yl]methyl}(imino)methyl-λ^6-sulfanone]
- Ki ([1]; Assay 2 (KI)): 0.028 nM
- pKi [2]: 9.35

Compound: COc1cccc2c(N3CCC(O)(C[S@@](C)(=N)=O)CC3)ncnc12 [Compound 185a]
- Ki ([1]; read-out: Assay 2 (KI)): 0.013 nM
- pKi [2, 3]: 9.49

Compound: COc1cc2nccc(N3CC4(CC(CS(C)(=N)=O)C4)C3)c2cc1OC (stereo not shown) [Compound 186, {[2-(6,7-dimethoxyquinolin-4-yl)-2-azaspiro[3.3]heptan-6-yl]methyl}(imino)methyl-λ^6-sulfanone]
- Ki ([1]; Assay 2 (KI)): 0.38 nM
- pKi [2]: 7.77

Compound: CCOc1cccc2c(N3CCC(CS(C)(=N)=O)CC3)ncnc12 (stereo not shown) [Compound 187, {[1-(8-ethoxyquinazolin-4-yl)piperidin-4-yl]methyl}(imino)methyl-λ^6-sulfanone]
- Ki ([1]; Assay 2 (KI)): 0.19 nM
- pKi [2]: 8.36

Compound: COc1cc2nncc(N3CC4(CC(CS(C)(=N)=O)C4)C3)c2cc1OC (stereo not shown) [Compound 188, {[2-(6,7-dimethoxycinnolin-4-yl)-2-azaspiro[3.3]heptan-6-yl]methyl}(imino)methyl-λ^6-sulfanone]
- Ki ([1]; Assay 2 (KI)): 0.074 nM
- pKi [2]: 8.19

Compound: COc1cccc2c(N3CCC(CS(=N)(=O)C4CC4)CC3)c(C#N)cnc12 (stereo not shown) [Compound 189, 4-(4-{[cyclopropyl(imino)oxo-λ^6-sulfanyl]methyl}piperidin-1-yl)-8-methoxyquinoline-3-carbonitrile]
- Ki ([1]; Assay 2 (KI)): 0.033 nM
- pKi [2]: 9.35

Compound: COc1cccc2c(N3CCC(C[S@](=N)(=O)C4CC4)CC3)c(C#N)cnc12 [Compound 189b]
- Ki ([1]; read-out: Assay 2 (KI)): 0.0075 nM
- pKi [2, 3]: 9.51

Compound: COc1cccc2c(N3CCC(CS(=N)(=O)C4CC4)CC3)ncnc12 (stereo not shown) [Compound 190, cyclopropyl(imino){[1-(8-methoxyquinazolin-4-yl)piperidin-4-yl]methyl}-λ^6-sulfanone]
- Ki ([1]; Assay 2 (KI)): 0.19 nM
- pKi [2]: 8.14
